# Measurements published in PMC12287315 (Nature Communications, 2025).
# Key:
# MHb neurons [1] = assay: Live calcium imaging; type: cell-based, mouse; settings: in words
# [2] = test system: NAc neurons of Pdyn-Cre mice; type: cell-based, mouse; settings: 10 μM JNJ-3792165; in words
# GPR139 [3] = biological target: T1, GPR139 (Homo sapiens, UniProt Q6DWJ6); assay: CalFluxVTN BRET calcium assay, GPR139-transfected HEK293T/17 cells; type: cell-based; settings: in words
# T1 sequence (Q6DWJ6 1-353): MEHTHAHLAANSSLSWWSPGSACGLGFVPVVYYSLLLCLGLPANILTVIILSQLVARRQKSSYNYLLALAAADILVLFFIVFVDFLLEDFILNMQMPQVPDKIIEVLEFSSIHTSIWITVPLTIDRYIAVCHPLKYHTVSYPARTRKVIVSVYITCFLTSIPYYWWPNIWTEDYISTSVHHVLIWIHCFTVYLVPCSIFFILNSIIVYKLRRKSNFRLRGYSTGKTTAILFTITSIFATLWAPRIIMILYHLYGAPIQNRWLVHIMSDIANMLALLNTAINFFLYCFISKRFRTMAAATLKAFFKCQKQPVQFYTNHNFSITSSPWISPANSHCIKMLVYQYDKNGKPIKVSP
# [4] = test system: GPR139-SmBit / β-arrestin2; assay: NanoBiT β-arrestin2 recruitment assay; type: cell-based, human
# [5] = test system: GPR139-SmBit / β-arrestin1; assay: NanoBiT β-arrestin1 recruitment assay; type: cell-based, human
# GPR139 / Gα11 = assay: G protein BRET assay, Gα11 activation; type: cell-based, human; settings: in words; for GPR139 coupling activity with Gα11: 10 µM
# MHb neurons [6] = type: cell-based, mouse
# GPR139 [7] = biological target: T1, GPR139; type: binding; settings: in words
# GPR139 / GαoA = assay: G protein BRET assay, GαoA activation; type: cell-based, human; settings: 10 µM; in words
# HiBit-GPR139 = assay: HiBiT-GPR139 surface abundance / internalization assay, HEK293T/17 cells; settings: 40 μM Dyngo-4a, 10 μM PitStop 2, 4 mM MβCD applied 15 min before; 40 μM Dyn A13; in words
molecule,measurement,setting,value
Cc1cccc(NC(=O)c2cc(C)n(Cc3c(Cl)cccc3Cl)n2)c1 [JNJ-3792165],effect on Dyn A17-induced Ca2+ response,MHb neurons [1],completely blocked
same,effect on jGCaMP7s response to optogenetic stimulation,[2],completely abolished
same,effect of antagonist on peptide-induced Ca2+ responses,GPR139 [3]; 10 μM JNJ-3792165,blocked
C[C@H](NC(=O)CNC(=O)c1cccc(Cl)c1)c1ccccc1 [JNJ-63533054],β-arrestin 2 recruitment to GPR139,[4],did not observe recruitment of β-arrestins
same,β-arrestin 1 recruitment to GPR139,[5],did not observe recruitment of β-arrestins
C=CCN1CC[C@]23c4c5ccc(O)c4O[C@H]2C(=O)CC[C@@]3(O)[C@H]1C5 [naloxone],block of G protein activation by GPR139,"GPR139 / Gα11; 100 µM Naloxone, 5 µM Dyn A17",did not block G protein activation by GPR139
same,effect on Dyn A17 inhibition of neuronal firing,MHb neurons [6],blocked
L-enk: inactive Leu-enkephalin as a negative control,competition with [3H]-JNJ-63533054 binding,GPR139 [7],no competition
same,GPR139 coupling activity with Gα11,GPR139 / Gα11,Neither did we observe G protein activation
same,GPR139 coupling activity with GαoA,GPR139 / GαoA,Neither did we observe G protein activation
"adrenocorticotropic hormone (SYSMEHFRWGKPVGKKRRPVKVYPNGAEDESAEAFPLEF; Corticotropin; UniProt P01189 138-176, looked up) [ACTH]",competition with [3H]-JNJ-63533054 binding,GPR139 [7],only modest binding
same,GPR139 coupling activity with Gα11,GPR139 / Gα11,did not show any significant coupling activity
same,CalFluxVTN signal compared to control cells not expressing GPR139,"GPR139 [3]; 10 μM, 3 independent experiments",significant signals
same,GPR139 coupling activity with GαoA,GPR139 / GαoA,did not show any significant coupling activity
methyl-beta-cyclodextrin [MβCD],effect on Dyn A13-mediated GPR139 internalization,HiBit-GPR139,had no effect
α-MSH,GPR139 coupling activity with Gα11,GPR139 / Gα11,did not show any significant coupling activity
same,GPR139 coupling activity with GαoA,GPR139 / GαoA,did not show any significant coupling activity
